These compounds were tested against Mitogen-activated protein kinase kinase kinase 14 (Homo sapiens, UniProt Q99558) (assay: Inhibition of auto-phosphorylation of recombinant human NF-kappaB-inducing kinase (NIK/MAP3K14) activity: NIK/MAP3K14 auto-phosphorylation activity was measured using the AlphaScreen® (αscreen) format (Perkin Elmer). All compounds tested were dissolved in dimethyl sulfoxide (DMSO) and further dilutions were made in assay buffer. Final DMSO concentration was 1% (v/v) in assays. Assay buffer was 50 mM Tris pH 7.5 containing 1 mM EGTA (ethylene glycol tetraacetic acid), 1 mM DTT (dithiothreitol), 0.1 mM Na3VO4, 5 mM MgCl2, 0.01% Tween® 20. Assays were carried out in 384 well Alphaplates (Perkin Elmer). Incubations consisted of compound, 25 microM Adenosine-5′-triphosphate (ATP), and 0.2 nM NIK/MAP3K14. Incubations were initiated by addition of GST-tagged NIK/MAP3K14 enzyme, carried out for 1 h at 25° C. and terminated by addition of stop buffer containing anti-phospho-IKK Ser176/180 antibody. Protein A Acceptor and Glutathione-Donor beads were added before reading using an EnVision® Multilabel Plate Reader (Perkin Elmer). Signal obtained in the wells containing blank samples was subtracted from all other wells and IC50's were determined by fitting a sigmoidal curve to % inhibition of control versus Log10 compound concentration.).
Sequence of Mitogen-activated protein kinase kinase kinase 14 (Q99558 whole entry): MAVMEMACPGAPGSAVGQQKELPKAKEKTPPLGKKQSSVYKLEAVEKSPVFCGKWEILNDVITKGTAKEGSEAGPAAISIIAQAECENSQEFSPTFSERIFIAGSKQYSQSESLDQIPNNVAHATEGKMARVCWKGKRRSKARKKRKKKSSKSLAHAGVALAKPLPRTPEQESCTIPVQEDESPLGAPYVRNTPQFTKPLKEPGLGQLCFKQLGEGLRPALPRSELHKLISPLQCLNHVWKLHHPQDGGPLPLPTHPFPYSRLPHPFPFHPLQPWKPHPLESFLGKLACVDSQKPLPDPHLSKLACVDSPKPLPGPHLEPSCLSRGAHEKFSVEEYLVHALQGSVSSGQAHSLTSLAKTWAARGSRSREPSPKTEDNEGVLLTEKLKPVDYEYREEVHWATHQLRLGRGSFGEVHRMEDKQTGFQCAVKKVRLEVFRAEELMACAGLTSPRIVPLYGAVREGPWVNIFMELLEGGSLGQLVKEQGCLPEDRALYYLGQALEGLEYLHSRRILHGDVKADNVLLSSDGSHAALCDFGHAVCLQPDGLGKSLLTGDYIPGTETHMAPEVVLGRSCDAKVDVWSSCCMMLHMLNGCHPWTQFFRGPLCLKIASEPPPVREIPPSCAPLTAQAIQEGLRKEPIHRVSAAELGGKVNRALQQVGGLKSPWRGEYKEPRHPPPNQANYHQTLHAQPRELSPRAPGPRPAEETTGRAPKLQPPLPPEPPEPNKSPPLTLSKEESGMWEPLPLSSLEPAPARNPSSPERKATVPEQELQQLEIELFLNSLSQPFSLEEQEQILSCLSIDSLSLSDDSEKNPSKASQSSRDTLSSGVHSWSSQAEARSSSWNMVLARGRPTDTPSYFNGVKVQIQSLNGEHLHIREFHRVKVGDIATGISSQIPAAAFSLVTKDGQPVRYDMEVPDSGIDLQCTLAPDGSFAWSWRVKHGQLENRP

Going from `COCCCn1nc(C)cc1Nc1nccc(-c2cc(C#N)c3c(c2)[C@@](C)(CO)CN3)n1` to `Cc1cc(Nc2nccc(-c3cc(C#N)c4c(c3)C(C)(CO)CN4)n2)n(CCN(C)C)n1` (stereo not drawn), the IC50 rises from 4 nM to 21 nM (5.2-fold).

With `Cc1nn(C)cc1Nc1nccc(-c2cc(C#N)c3c(c2)C(C)(CO)CN3)n1` (stereo not drawn) the IC50 was 3.2 nM.

— ChEMBL document CHEMBL5728791, “Heteroaromatic derivatives as NIK inhibitors” (2021)
